# Measurements reported in article PMC13021670, “Novel small molecule targeting PgQC reduces Porphyromonas gingivalis virulence” (Frontiers in Oral Health, 2026).
# Biological target: T1, P. gingivalis glutaminyl cyclase (PgQC) (Porphyromonas gingivalis, UniProt Q7MT37)
# T1 construct: gene PG_2157; Recombinant P. gingivalis glutaminyl cyclase
# Assay: fluorogenic enzyme assay with H-Gln-AMC, recombinant purified PgQC ([…]), fit to competitive inhibition
# Assay type: biochemical
# T1 sequence (Q7MT37 entry or part of it): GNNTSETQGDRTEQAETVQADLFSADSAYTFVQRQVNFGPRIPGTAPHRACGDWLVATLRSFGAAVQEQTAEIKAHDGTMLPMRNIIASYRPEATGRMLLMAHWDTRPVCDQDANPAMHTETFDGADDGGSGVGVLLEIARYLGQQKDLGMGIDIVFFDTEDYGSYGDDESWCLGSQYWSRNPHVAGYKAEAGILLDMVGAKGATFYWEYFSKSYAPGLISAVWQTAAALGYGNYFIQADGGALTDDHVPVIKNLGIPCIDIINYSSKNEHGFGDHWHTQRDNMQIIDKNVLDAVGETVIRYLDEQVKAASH
smiles,measurement,value
"N=C(N)NCCOc1ccc(CNc2cnc3nc[nH]c3c2)cc1 [S-0636, 1-(2-(4-((lmidazo[4,5-b]pyridin-6-ylamino)methyl)-phenoxy)ethyl)guanidine]",Ki,14 nM
